{
  "source": "the SangsterLogP compilation",
  "key": {"[1]": {"experiment": "method code SF-AS, from DOI: 10.1248/cpb.28.3673"}, "[2]": {"experiment": "method code SF-AS, from DOI: 10.1021/jm00296a014, PMID: 5418493"}, "[3]": {"experiment": "method code SF-HPLC, from DOI: 10.1021/jm00112a026, PMID: 1875345", "conditions": "pH 7.4"}, "[4]": {"experiment": "method code SF-RC, from DOI: 10.1021/jm000079i, PMID: 10956218", "conditions": "pH 7.4"}, "[5]": {"experiment": "from Comini, L.; Núñez Montoya, S.; Argüello, G.; Cabrera, J. (2006). Partition coefficient (log P) determination of anthraquinone derivatives isolated from Heterophyllaea pustulata Hook, f. (Rubiaceae). …", "conditions": "pH 7.4"}, "[6]": {"experiment": "method code SF-HPLC, from DOI: 10.1016/j.ejpb.2012.12.004, PMID: 23262162"}, "[7]": {"experiment": "not given", "remark": "listed apart in the source"}, "[8]": {"experiment": "from Nishimura, K.; Okajima, N.; Fujita, T.; Nakajima, M. (1982). Quantitative structure-activity studies of substituted benzylchrysanthemates. IV. Physicochemical properties and rate of progress of the …"}, "[9]": {"experiment": "method code SF-HPLC, from DOI: 10.1023/a:1015924724973, PMID: 2762226", "conditions": "pH 7.4"}, "[10]": {"experiment": "method code SF-AS, from THAKUR, B.; Mehta, U.; TIPNIS, P. (1981). Ortho effect in partition coefficients of some o-benzyloxybenzamides. Indian J Pharm Sci, 43(6)224-226."}, "[11]": {"experiment": "method code SF-AS, from DOI: 10.1248/cpb.32.5003, PMID: 6534549"}, "[12]": {"experiment": "not given", "remark": "listed apart in the source"}, "[13]": {"experiment": "not given", "remark": "listed apart in the source"}, "[14]": {"experiment": "not given", "remark": "listed apart in the source"}, "[15]": {"experiment": "method code SF-HPLC, from DOI: 10.1021/jm030477w, PMID: 15084119", "conditions": "pH 7.4"}, "[16]": {"experiment": "method code SF-HPLC, from DOI: 10.1002/ps.2780280108"}, "[17]": {"experiment": "method code SF-HPLC, from DOI: 10.1021/js950346l, PMID: 9109056"}, "[18]": {"experiment": "method code SF-AS, from DOI: 10.1023/a:1016392123137, PMID: 24272811"}, "[19]": {"experiment": "method code G, from Wang, L.; Li, H.; Wang, X.; Zhang, Z. (1993). Determination of aqueous solubilities and partition coefficients of substitutive ethylketone congeners by generator column. Huanjing Huaxue, 12(2)151-154."}, "[20]": {"experiment": "from Afshan, A.; Jehangir, M.; Amin, W.; Mujahid, A. (2000). Study of various esters of ethylcysteine acid dimer as brain perfusion imaging agents and formulation into single vial kit for labelling with …", "conditions": "pH 7.5"}, "[21]": {"experiment": "method code SF-AS, from PMID: 3774812", "conditions": "pH 4.0"}, "[22]": {"experiment": "method code SF-AS, from PMID: 6540096", "conditions": "pH 7.5"}, "[23]": {"experiment": "not given", "remark": "listed apart in the source"}, "[24]": {"experiment": "method code SF-AS, from DOI: 10.1128/jb.153.1.232-240.1983, PMID: 6294048"}, "[25]": {"experiment": "not given", "remark": "listed apart in the source"}},
  "data": [
    {"molecule": "CO[C@@]1(NC(=O)C(C(=O)O)c2ccc(O)cc2)C(=O)N2C(C(=O)O)=C(CSc3nnnn3C)CO[C@@H]21", "note": "(some centres not stated)", "values": [
      {"measurement": "logD", "setting": "[1]; pH 2.0", "result": -0.58}
    ]},
    {"molecule": "O=C(O)C1c2ccccc2Cc2ccccc21", "values": [
      {"measurement": "logP", "setting": "[2]", "result": 2.78}
    ]},
    {"molecule": "OC(CN1C2C3CCC(C3)C21)Cn1ccnc1", "note": "(configuration not stated)", "values": [
      {"measurement": "logD", "setting": "[3]", "result": 1.6}
    ]},
    {"molecule": "COc1ccc(Sc2ccccc2N(C)C)c(N)c1", "values": [
      {"measurement": "logD", "setting": "[4]", "result": 2.83}
    ]},
    {"molecule": "CCCc1nc(S(=O)(=O)Nc2c(F)cccc2F)nn1-c1ccccc1", "values": [
      {"measurement": "logP", "result": 4.2}
    ]},
    {"molecule": "Cc1c(O)cc2c(c1O)C(=O)c1ccccc1C2=O", "values": [
      {"measurement": "logD", "setting": "[5]", "result": 2.36}
    ]},
    {"molecule": "Cc1c(C)c2c(c(C)c1O)CCC(C)(C(=O)O)O2", "note": "(configuration not stated)", "values": [
      {"measurement": "logP", "setting": "[6]", "result": 2.61}
    ]},
    {"molecule": "CN(C)c1ccccc1Sc1ccc(Cl)cc1N", "values": [
      {"measurement": "logD", "setting": "[4]", "result": 3.55}
    ]},
    {"molecule": "c1ccc2[nH]c(SCCC3CCCCC3)nc2c1", "values": [
      {"measurement": "logP", "setting": "[7]", "result": 4.5}
    ]},
    {"molecule": "CC=CCOC(=O)[C@@H]1[C@@H](C=C(C)C)C1(C)C", "values": [
      {"measurement": "logP", "setting": "[8]", "result": 5.09}
    ]},
    {"molecule": "CCCCOC(=O)[C@@H](N)Cc1ccc(O)c(O)c1", "values": [
      {"measurement": "logD", "setting": "[9]", "result": 1.19}
    ]},
    {"molecule": "Cc1ccc(COc2ccccc2C(N)=O)cc1", "values": [
      {"measurement": "logP", "setting": "[10]", "result": 1.86}
    ]},
    {"molecule": "O=C(Cc1ccccc1)Nc1ccccc1O", "values": [
      {"measurement": "logP", "setting": "[11]", "result": 2.4}
    ]},
    {"molecule": "Cc1cc2oc(=O)cc(C)c2cc1OCC(O)CO", "note": "(configuration not stated)", "values": [
      {"measurement": "logP", "setting": "[12]", "result": 0.36}
    ]},
    {"molecule": "CCOC(=O)C1CCC2C(C1)N2CC(O)Cn1ccnc1", "note": "(configuration not stated)", "values": [
      {"measurement": "logD", "setting": "[3]", "result": 1.13}
    ]},
    {"molecule": "CCC(CC)(C(N)=O)c1ccc2c(c1)OCO2", "values": [
      {"measurement": "logP", "setting": "[13]", "result": 1.59}
    ]},
    {"molecule": "CC(C)OP(=O)(OC(C)C)SCc1ccccc1", "values": [
      {"measurement": "logP", "setting": "[14]", "result": 3.43}
    ]},
    {"molecule": "FCCNc1ccc(-c2cn3cc(I)ccc3n2)cc1", "values": [
      {"measurement": "logD", "setting": "[15]", "result": 4.41}
    ]},
    {"molecule": "COC(=O)c1c(C)[nH]c(-c2cccc(Cl)n2)c1C(=O)OC", "values": [
      {"measurement": "logP", "setting": "[16]", "result": 2.65}
    ]},
    {"molecule": "Cc1cc(-c2ccc(N)c(C)c2)ccc1N", "values": [
      {"measurement": "logD", "setting": "[1]; pH 5.8", "result": 2.34}
    ]},
    {"molecule": "CN1C(C(=O)Nc2ccccn2)=C(O)c2ccccc2S1(=O)=O", "values": [
      {"measurement": "logP", "setting": "[17]", "result": 1.86}
    ]},
    {"molecule": "Cc1ccc(Cl)c(NS(=O)(=O)c2nc(C)n(-c3ncccn3)n2)c1Cl", "values": [
      {"measurement": "logP", "result": 3}
    ]},
    {"molecule": "Cc1ccc2c(N)nc(-c3ccccn3)cc2c1", "values": [
      {"measurement": "logD", "setting": "[18]; pH 6.0", "result": 3.04}
    ]},
    {"molecule": "Cc1ccc(SCC(=O)c2ccc(Cl)cc2)cc1", "values": [
      {"measurement": "logP", "setting": "[19]", "result": 3.43}
    ]},
    {"molecule": "CCCCOC(=O)[C@H](CS)NCCN[C@@H](CS)C(=O)OCCCC", "values": [
      {"measurement": "logD", "setting": "[20]", "result": 2.9}
    ]},
    {"molecule": "c1ccc(Cc2nc3ccccc3[nH]2)cc1", "values": [
      {"measurement": "logP", "setting": "[7]", "result": 4.16}
    ]},
    {"molecule": "CCCOC(=O)[C@H](CS)NCCN[C@@H](CS)C(=O)OCCC", "values": [
      {"measurement": "logD", "setting": "[20]", "result": 2.5}
    ]},
    {"molecule": "C[C@H](C(=O)O)c1ccc(-c2ccccc2)c(F)c1", "values": [
      {"measurement": "logD", "setting": "[21]", "result": 3.87}
    ]},
    {"molecule": "CCOP(=O)(Sc1ccccc1)Sc1ccccc1", "values": [
      {"measurement": "logP", "setting": "[14]", "result": 3.68}
    ]},
    {"molecule": "C=CCC(CC=C)(C(N)=O)c1ccc2c(c1)OCO2", "values": [
      {"measurement": "logP", "setting": "[13]", "result": 2.1}
    ]},
    {"molecule": "COc1c(C)c(O)cc2c1C(=O)c1ccccc1C2=O", "values": [
      {"measurement": "logD", "setting": "[5]", "result": 2.83}
    ]},
    {"molecule": "Cc1cc(=O)oc2c(C)c(OCC(O)CCl)ccc12", "note": "(configuration not stated)", "values": [
      {"measurement": "logP", "setting": "[12]", "result": 0.53}
    ]},
    {"molecule": "O=C1CN=C(c2ccccc2Cl)c2cc([N+](=O)[O-])ccc2N1", "values": [
      {"measurement": "logD", "setting": "[22]", "result": 2.5}
    ]},
    {"molecule": "O=C(O)COC(=O)Cc1ccccc1Nc1c(Cl)cccc1Cl", "values": [
      {"measurement": "logP", "setting": "[17]", "result": 2.7}
    ]},
    {"molecule": "Oc1ccc(/C=C/c2cc(O)cc(O)c2)cc1", "values": [
      {"measurement": "logP", "setting": "[6]", "result": 2.56}
    ]},
    {"molecule": "CN(C)CCN(Cc1ccccc1)c1ccccn1", "values": [
      {"measurement": "logP", "setting": "[23]", "result": 2.65}
    ]},
    {"molecule": "Cc1nnc(SCC2=C(C(=O)O)N3C(=O)[C@@H](NC(=O)Cn4cnnn4)[C@H]3SC2)s1", "values": [
      {"measurement": "logP", "setting": "[24]", "result": -0.24}
    ]},
    {"molecule": "COC(=O)c1c(C)[nH]c(-c2ccc(Cl)cn2)c1C(=O)OC", "values": [
      {"measurement": "logP", "setting": "[16]", "result": 2.7}
    ]},
    {"molecule": "CCN(CC)CCSCc1ccccc1", "values": [
      {"measurement": "logP", "setting": "[25]", "result": 2.66}
    ]},
    {"molecule": "N[C@@H](Cc1ccc(O)c(O)c1)C(=O)OCCCCO", "values": [
      {"measurement": "logD", "setting": "[9]", "result": -0.46}
    ]},
    {"molecule": "CC(=O)OCC1=C(C(=O)O)N2C(=O)C(NC(=O)Cc3cc4ccccc4s3)C2SC1", "note": "(configuration not stated)", "values": [
      {"measurement": "logD", "setting": "[24]; pH 3.0", "result": 1.68}
    ]},
    {"molecule": "CC(C(=O)O)(c1ccccc1)c1ccccc1", "values": [
      {"measurement": "logP", "setting": "[2]", "result": 2.69}
    ]},
    {"molecule": "FCCCNc1ccc(-c2cn3cc(I)ccc3n2)cc1", "values": [
      {"measurement": "logD", "setting": "[15]", "result": 4.6}
    ]},
    {"molecule": "CN(C)C(=O)O[C@H]1N=C(c2ccccc2)c2cc(Cl)ccc2N(C)C1=O", "values": [
      {"measurement": "logD", "setting": "[22]", "result": 2.88}
    ]},
    {"molecule": "O=C(Cc1ccccc1)Nc1ccccc1F", "values": [
      {"measurement": "logP", "setting": "[11]", "result": 2.62}
    ]},
    {"molecule": "C=CCC1(C(=O)OC)C(C=C(C)C)C1(C)C", "note": "(configuration not stated)", "values": [
      {"measurement": "logP", "setting": "[8]", "result": 4.89}
    ]},
    {"molecule": "O=C(O)Cc1sc(-c2ccccc2)nc1-c1ccc(Cl)cc1", "values": [
      {"measurement": "logD", "setting": "[21]", "result": 2.72}
    ]},
    {"molecule": "CN1CC(NC(=O)CSC(=O)c2ccccc2)CC2c3cccc4[nH]cc(c34)CC21", "note": "(configuration not stated)", "values": [
      {"measurement": "logP", "setting": "[25]", "result": 1.9}
    ]},
    {"molecule": "NC(=O)c1ccccc1OCc1ccc([N+](=O)[O-])cc1", "values": [
      {"measurement": "logP", "setting": "[10]", "result": 1.73}
    ]},
    {"molecule": "Cc1ccc2ccc3ccc(C)nc3c2n1", "values": [
      {"measurement": "logP", "setting": "[18]", "result": 2.46}
    ]},
    {"molecule": "CNS(=O)(=O)Cc1ccc2[nH]cc(CCN(C)C)c2c1", "values": [
      {"measurement": "logP", "setting": "[23]", "result": 1.1}
    ]},
    {"molecule": "Cc1ccc(C(=O)CSc2ccccc2)cc1", "values": [
      {"measurement": "logP", "setting": "[19]", "result": 2.7}
    ]}
  ]
}
